Results reported in patent publication US9695438B2, “Wheat plants having increased resistance to imidazolinone herbicides” (University of Saskatchewan, priority 2001, dated 2017).

Legend:
Nicotiana tabacum plants = details: plants homozygous for both mutations versus plants homozygous for each single mutation; cited from earlier work
[1] = test system: wheat plants (Triticum aestivum L. cv CDC Teal and mutant lines); experiment: Whole-plant reaction to imazamox spray (resistant / intermediate / susceptible rating); format: in vivo
Text: Approximately 40,000 seeds of Triticum aestivum L. cv CDC Teal (Hughes and Hucl, 1993 Can. J. Plant Sci. 73:193-197) were mutagenized using modified procedures described by Washington and Sears (1970). Seeds were pre-soaked in distilled water for four hours, followed by treatment with 0.3% EMS for six hours. Seeds were rinsed continually with tap water for seven hours and allowed to dry for approximately four hours before being planted in the field. The M1 plants were selfed and the seed was harvested in bulk. Approximately 2×10^6 M2 plants were grown in the field the following year and were sprayed at the two leaf stage with imazamox at a rate of 40 g ai ha^−1 in a spray volume of 100 L ha^−1. Merge 0.05% (v/v) adjuvant was added to the spray solution. Six lines resistant to imazamox were selected and designated as lines 1A, 9A, 10A, 11A, 15A, and 16A. The M3 and M4 generations were grown in a walk-in growth chamber and plants resistant to imazamox were selected using rates of 20 g ai ha^−1. Resistant plants were selected in the M5 generation after application of 40 g ai ha^−1 in the field. M5 seed was homozygous for the trait, as progeny testing detected no segregation for resistance to imazamox.
To determine the genetic control of resistance to imazamox in the six wheat lines, reciprocal crosses between the six homozygous resistant M6 lines and CDC Teal (susceptible to imazamox) were made. Randomly selected F1 plants from each of the crosses were backcrossed to CDC Teal to form backcross (BC)F1 populations. To investigate allelism, all possible inter-crosses between the six mutants and SWP965001 (Grandin/3*Fidel—FS-4) were made. SWP965001 is a spring wheat line that is homozygous for the FS-4 allele. Parental genotypes were grown in a walk-in growth chamber with a 16 hour photoperiod and a 24° C. day and 16° C. night temperature regime. Spikes that were ¾ emerged from the boot were emasculated and then pollinated 2-3 days after the emasculation date. Randomly selected F2 plants from all segregating crosses were selfed to produce F2:3 families. Parental, F1, BCF1, F2 plants and F2:3 families were tested for reaction to imazamox. All experiments were conducted in a walk-in growth chamber with a 16 hour photoperiod and a 23° C. day and 16° C. night temperature regime. A completely random design was used for all experiments. In experiments involving F2:3 families, effort was taken to randomize both within and among families. The F1 and F2 populations were screened in the same experiment along with parental genotypes and CDC Teal as controls. Both the BCF1 and F2:3 populations were screened in two separate experiments along with appropriate parental genotypes as controls.
Herbicide treatments were applied to plants growing in 8×16 cell flats at the two leaf stage using a traveling cable sprayer calibrated to spray 100 L ha^−1. Imazamox was applied to plants at a rate of 20 g ai ha^−1 using an 8001 EVS nozzle at a pressure of 275 kPa. Merge surfactant (0.05% v/v) was added to the herbicide solution prior to application. Fifteen days after herbicide application, plants were rated based on parental reactions and were considered as resistant, intermediate, or susceptible. […] For Mendelian analysis of the segregating populations, plants were scored into resistant and susceptible categories and tested for goodness of fit to various 1 gene, 2 gene and 3 gene models using chi-square analysis. […]

[2] = test system: wheat genotypes (BW755, Teal15A, 15A/11A); experiment: Injury of wheat genotypes treated with 10× or 30× rate of imazamox; format: in vivo, Triticum aestivum
Text: FIG. 7 is a table comparing injury sustained by three wheat genotypes when treated with either a 10× or 30× rate of imazamox. The 1× rate is 20 g/ha. BW755 contains the FS4 mutant gene. 15A/11A is a bulk of selfed progeny from the cross of Teal11A and Teal15A. The population was not yet homozygous at all three non-allelic loci.
The presence of two IMI nucleic acids in Teal 15A provides increased tolerance to imidazolinone herbicides compared to a line such as BW755 carrying only one IMI nucleic acid. This increased tolerance is reflected both in less injury at higher herbicide rates, but in having more uninhibited AHAS enzyme activity.
Combining three non-allelic genes each conferring tolerance to imidazolinone herbicides results in greater tolerance than with only two non-allelic genes (FIG. 7).

Row | SMILES | resistance to foliar applications relative to single mutation plants (Nicotiana tabacum plants) | reaction to imazamox ([1]; CDC Teal (wild type parent)) | survival after application of imazamox ([1]; F1 plants of reciprocal crosses between resistant lines and CDC Teal, 20 g ai ha^−1) | reaction to imazamox ([1]; F1 plants of resistant lines crossed with CDC Teal, except 15A×Teal, 20 g ai ha^−1) | reaction to imazamox ([1]; fourteen F1 plants from 15A×Teal cross, 20 g ai ha^−1) | reaction to imazamox ([1]; selected lines 1A, 9A, 10A, 11A, 15A, 16A, M2 plants in field, two leaf stage, 40 g ai ha^−1) | plant injury ([2]; 10× rate (200 g/ha), one gene plants (BW755, FS4)) | plant injury ([2]; 10× rate (200 g/ha), two gene plants (Teal 15A)) | plant injury ([2]; 30× rate (600 g/ha), homozygous population of Teal15A) | plant injury ([2]; 30× rate (600 g/ha), still-segregating selfed population of Teal15A crossed with Teal11A)
1 | COc1nc(C)nc(NC(=O)NS(=O)(=O)c2ccccc2Cl)n1 [chlorsulfuron] | five-fold more resistant | – | – | – | – | – | – | – | – | –
2 | COCc1cnc(C2=NC(C)(C(C)C)C(=O)N2)c(C(=O)O)c1 (stereo not shown) [imazamox] | – | susceptible | survived | intermediate reaction | resistant | resistant | all treated one gene plants were injured | no two gene plants were injured | all plants of the homozygous population of Teal15A sustained injury | over half of plants sustained no injury
